Results from PubChem BioAssay (NCI).
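How tested: cells in 96-well plates exposed to compound for 48 hours at five concentrations. Definition used: TGI = concentration required for complete inhibition of growth.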

How the values were obtained:
Assay in all cases: NCI tumour cell line growth inhibition, 48 h
786-0 renal = tested on: 786-0 renal
EKVX NSCLC = tested on: EKVX NSCLC
HL-60(TB) leukemia = tested on: HL-60(TB) leukemia
LOX IMVI melanoma = tested on: LOX IMVI melanoma
M14 melanoma = tested on: M14 melanoma
OVCAR-3 ovarian = tested on: OVCAR-3 ovarian
OVCAR-4 ovarian = tested on: OVCAR-4 ovarian
SK-OV-3 ovarian = tested on: SK-OV-3 ovarian
SR leukemia = tested on: SR leukemia
T-47D breast = tested on: T-47D breast

Compound	TGI (786-0 renal)	TGI (EKVX NSCLC)	TGI (HL-60(TB) leukemia)	TGI (LOX IMVI melanoma)	TGI (M14 melanoma)	TGI (OVCAR-3 ovarian)	TGI (OVCAR-4 ovarian)	TGI (SK-OV-3 ovarian)	TGI (SR leukemia)	TGI (T-47D breast)
C/C(CN1C(=O)c2ccccc2C1=O)=N\NS(=O)(=O)c1ccc(Br)cc1	> 100 µM	> 100 µM	> 100 µM	> 100 µM	> 100 µM	> 100 µM	> 100 µM	> 100 µM		
Cn1c(O)c(C(=O)Nc2cccs2)c(=O)[nH]c1=S	41.8 µM		> 100 µM	31 µM	64.3 µM	49.8 µM	66.1 µM	72.5 µM		
NC(=S)NNC(=O)/C(=C/c1ccc(/C=C(\NC(=O)c2ccccc2)C(=O)NNC(N)=S)cc1)NC(=O)c1ccccc1	> 100 µM	> 100 µM	> 31.6 µM	> 100 µM	> 100 µM	> 100 µM	> 100 µM	> 100 µM	> 63 µM	
COc1cc(/C=C/C(=O)c2sc(-n3nc(-c4ccccc4)cc3-c3ccccc3)nc2C)ccc1O	> 100 µM	> 100 µM	> 100 µM	> 100 µM		> 100 µM		> 100 µM		
Cn1nc(Cc2ccc(Cl)cc2)n(N)c1=O	> 100 µM									> 100 µM
CC(C)=CCCC1(C)C=Cc2c(c(C)cc3c2[nH]c2cc(O)ccc23)O1 (configuration not stated)	> 25 µM		> 25 µM	> 25 µM	> 25 µM	> 25 µM	> 25 µM	> 25 µM	> 25 µM	
O=S(=O)([O-])[O-].[Fe+2].c1ccc(/C(=N\Nc2ccccn2)c2ccccn2)cc1	10.7 µM	4.72 µM	4.62 µM	11.8 µM	4.89 µM	2.67 µM	2.96 µM	4.25 µM		
CC1C2CC(CC(=O)N2)C1(C)C (configuration not stated)	> 100 µM	> 100 µM	> 100 µM		> 100 µM	> 100 µM	> 100 µM	> 100 µM		> 100 µM
CCOC(C[C@H](O)[C@H]1COC(=S)S1)OCC	> 100 µM	> 100 µM	> 100 µM	> 100 µM	> 100 µM	> 100 µM			> 100 µM	
CC(C)c1ccccc1SC1CC(=O)CC(Sc2ccccc2C(C)C)C12O[C@H](c1ccccc1)[C@@H](c1ccccc1)O2 (some centres not stated)	33.3 µM	> 100 µM	34.8 µM	97.4 µM	40.8 µM	> 100 µM	> 100 µM	> 100 µM		82.9 µM
